# Patent US11072618B2, “Compounds, compositions and methods” (Denali Therapeutics Inc., priority 2016, dated 2021)
# Biological target: T1, GST-human receptor interacting protein kinase 1 fusion (8-327) enzyme (Homo sapiens, UniProt Q13546)
# T1 sequence (Q13546 8-327): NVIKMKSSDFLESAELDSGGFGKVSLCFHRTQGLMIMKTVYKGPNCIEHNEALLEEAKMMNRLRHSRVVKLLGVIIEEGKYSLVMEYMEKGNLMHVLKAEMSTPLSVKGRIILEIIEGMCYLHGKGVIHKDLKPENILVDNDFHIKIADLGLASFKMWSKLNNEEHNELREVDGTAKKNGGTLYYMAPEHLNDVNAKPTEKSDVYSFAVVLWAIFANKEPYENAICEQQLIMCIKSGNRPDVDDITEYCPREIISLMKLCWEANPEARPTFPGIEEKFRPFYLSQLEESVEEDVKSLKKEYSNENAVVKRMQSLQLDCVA
# Experiment: Fluorescent Polarization Binding (FP Binding) assay, receptor interacting protein kinase 1
# Settings: 10 nM enzyme, 5 nM fluorescent-labeled ligand, RT 30 min, mean of a minimum of two independent experiments
# Procedure: Fluorescent Polarization Binding (FP Binding) assay (Berger S. B. et al. (2015) Cell Death Discovery, 1: 15009; Maki J. L. et al. (2012) Anal Biochem., 427(2): 164-174) was performed in polystyrene low volume 384-well black plate, at Room Temperature (RT) in a final volume of 10.1 μL/well using 10 nM of GST-human receptor interacting protein kinase 1 fusion (8-327) enzyme and 5 nM of fluorescent-labeled ligand (14-(2-{[3-({2-{[4-(cyanomethyl)phenyl]amino}-6-[(5-cyclopropyl-1H-pyrazol-3-yl)amino]-4-pyrimidinyl}amino) propyl]amino}-2-oxoethyl)-16,16,18,18-tetramethyl-6,7,7a,8a,9,10,16,18-octahydrobenzo[2″,3″]indolizino[8″,7″:5′,6′]pyrano[3′,2′:3,4]pyrido[1,2-a]indol-5-ium-2-sulfonate.
# Test compounds were serially diluted in DMSO at 100 fold final concentrations in the assay (1% DMSO final). In each well of a 384-well Plate were dispensed 0.1 μL of compound solution (or DMSO for controls) followed by 5 μL of GST-human receptor interacting protein kinase 1 fusion (8-327) enzyme at twice the final concentrations in assay buffer (50 mM HEPES pH 7.5, 10 mM NaCl, 50 mM MgCl2, 0.02% CHAPS, 0.5 mM DTT and 0.01% Pluronic F127). For negative control the enzyme addition was replaced by assay buffer only.
# After addition of 5 μL of fluorescent-labeled ligand at twice the final concentrations in assay buffer, the plate was incubated at RT for 30 min. At the end, the binding was measured as FP value with the Envision (PerkinElmer) plate reader using filter for an excitation λ=531 nm FP and an emission λ=595 nm FP (S & P-pol).
# Test compound inhibition was expressed as percent inhibition of internal assay controls. For concentration response curves, normalized data is fit and IC50 determined using XL-fit (IDBS) for Excel. IC50 were averaged to determine a mean value, for a minimum of two independent experiments.
# Receptor interacting protein kinase 1 activity of exemplary compounds was determined according to the above general procedures.
row,SMILES,IC50
1,CCC1(CC)CN2CCC(c3ccc(F)cc3)N2C1=O (centres unmarked) [Compound 2],1 to 30 µM
2,CC(F)(F)C1(C)CN2CCC(c3cncc(F)c3)N2C1=O (centres unmarked) [Compound 46],1 to 30 µM
3,CC(F)(F)C1(C)CN2CCC(c3cc(F)cc(C#N)c3)N2C1=O (centres unmarked) [Compound 43],1 to 30 µM
4,"CC(F)(F)C1(C)CN2CCC(c3cncc(C#N)c3)N2C1=O (single isomer, unassigned) [Compound 36]",1 to 30 µM
5,CC1(C)CCN2CCC(c3ccccc3)N2C1=O (centres unmarked) [Compound 8],1 to 30 µM
6,CCC1(C(F)F)CN2CCC(c3cncc(F)c3)N2C1=O (centres unmarked) [Compound 34],1 to 30 µM
7,O=C1N2C(c3cncc(F)c3)CCN2CC1(CC1CC1)C(F)F (centres unmarked) [Compound 53],1 to 30 µM
8,CCC1(C)CN2CCC(c3cncc(F)c3)N2C1=O (centres unmarked) [Compound 26],1 to 30 µM
9,O=C1N2C(c3cncc(F)c3)CCN2CC1(CC(F)(F)F)C(F)F (centres unmarked) [Compound 48],1 to 30 µM
10,CCC1(CCl)CN2CCC(c3cccc(F)c3)N2C1=O (centres unmarked) [Compound 29],< 1 µM
11,CC1(C(F)F)CN2CCC(c3cc(F)cc(C#N)c3)N2C1=O (centres unmarked) [Compound 40],< 1 µM
12,"CCC1(C(F)F)C[C@H]2CCC(c3cccc(F)c3)N2C1=O (single isomer, unassigned) [Compound 55]",< 1 µM
13,CCCC1(C(F)F)CN2CCC(c3cncc(C#N)c3)N2C1=O (centres unmarked) [Compound 54],< 1 µM
14,CCCC1(C)CN2CCC(c3cccc(F)c3)N2C1=O (centres unmarked) [Compound 15],1 to 30 µM
15,"CC1(C(F)F)CN2CCC(c3cncc(C#N)c3)N2C1=O (single isomer, unassigned) [Compound 38]",1 to 30 µM
16,CC1(C)CN2CCC(c3cccc(C#N)c3)N2C1=O (centres unmarked) [Compound 4],1 to 30 µM
17,CCC1(C)CN2CCC(c3ccc(F)c(F)c3)N2C1=O (centres unmarked) [Compound 10],< 1 µM
18,CC1(C(F)F)CN2CCC(c3cc(F)cc(C#N)c3)N2C1=O (centres unmarked) [Compound 41],1 to 30 µM
19,CC1(C)CN2CCC(c3ccc(F)c(F)c3)N2C1=O (centres unmarked) [Compound 9],1 to 30 µM
20,CCC1(C(F)F)CN2CCC(c3cncc(C#N)c3)N2C1=O (centres unmarked) [Compound 19],< 1 µM
21,CC1(CC(F)(F)F)CN2CCC(c3cncc(F)c3)N2C1=O (centres unmarked) [Compound 51],1 to 30 µM
22,CC1(CC(F)F)CN2CCC(c3cccc(F)c3)N2C1=O (centres unmarked) [Compound 27],< 1 µM

# Further lines, results first:
row,IC50,SMILES
1,< 1 µM,CCCC1(C)CN2CCC(c3cccc(F)c3)N2C1=O (centres unmarked) [Compound 16]
2,< 1 µM,CC(F)(F)C1(C)CN2CCC(c3cc(F)cc(C#N)c3)N2C1=O (centres unmarked) [Compound 42]
3,< 1 µM,CCC1(C(F)F)CN2CCC(c3cncc(F)c3)N2C1=O (centres unmarked) [Compound 33]
4,< 1 µM,CCC1(C)CN2CCC(c3cc(F)cc(C#N)c3)N2C1=O (centres unmarked) [Compound 23]
5,< 1 µM,CC(F)(F)C1(C)CN2CCC(c3cncc(C#N)c3)N2C1=O (centres unmarked) [Compound 37]
6,< 1 µM,CC1(C)CN2CC[C@@H](c3ccccc3)N2C1=O [Compound 1]
7,< 1 µM,"CC1(C(F)F)CN2CCC(c3cncc(C#N)c3)N2C1=O (single isomer, unassigned) [Compound 39]"
8,< 1 µM,CCC1(C)CN2CCC(c3cncc(F)c3)N2C1=O (centres unmarked) [Compound 25]
9,< 1 µM,C=CCC1(C)CN2CCC(c3cccc(F)c3)N2C1=O (centres unmarked) [Compound 14]
10,< 1 µM,"CCC1(C)CN2CCC(c3cc(F)cc(F)c3)N2C1=O (single isomer, unassigned) [Compound 22]"
11,< 1 µM,CC1(C)CN2CCC(c3cc(F)cc(C#N)c3)N2C1=O (centres unmarked) [Compound 5]
12,< 1 µM,CCC1(C(F)F)CN2CCC(c3cc(F)cc(C#N)c3)N2C1=O (centres unmarked) [Compound 31]
13,< 1 µM,CC(F)(F)C1(C)CN2CCC(c3cncc(F)c3)N2C1=O (centres unmarked) [Compound 47]
14,< 1 µM,CC1(C)CC2(CN3CCC(c4cccc(F)c4)N3C2=O)C1 (centres unmarked) [Compound 12]
15,< 1 µM,CC1(CC2CC2)CN2CCC(c3cc(F)cc(C#N)c3)N2C1=O (centres unmarked) [Compound 35]
16,< 1 µM,"CCC1(C(F)F)C[C@@H]2CCC(c3cccc(F)c3)N2C1=O (single isomer, unassigned) [Compound 57]"
17,< 1 µM,CCC1(C)CN2CCC(c3cccc(F)c3)N2C1=O (centres unmarked) [Compound 7]
18,< 1 µM,CC1(CC#N)CN2CCC(c3cccc(F)c3)N2C1=O (centres unmarked) [Compound 28]
19,< 1 µM,CCC1(C(F)F)CN2CCC(c3cncc(Br)c3)N2C1=O (centres unmarked) [Compound 18]
20,< 1 µM,CC1(CC2CC2)CN2CCC(c3cccc(F)c3)N2C1=O (centres unmarked) [Compound 17]
21,< 1 µM,CCC1(C(F)F)CN2CCC(c3cccc(F)c3)N2C1=O (centres unmarked) [Compound 20]
22,< 1 µM,CC(F)(F)C1(C)CN2CCC(c3cccc(F)c3)N2C1=O (centres unmarked) [Compound 13]
23,< 1 µM,CCC1(C)CN2CCC(c3cc(F)cc(F)c3)N2C1=O (centres unmarked) [Compound 21]
24,< 1 µM,O=C1N2C(c3cncc(F)c3)CCN2CC1(CC1CC1)C(F)F (centres unmarked) [Compound 52]
25,< 1 µM,CC1(CC(F)(F)F)CN2CCC(c3cncc(F)c3)N2C1=O (centres unmarked) [Compound 50]
26,< 1 µM,CCC1(CF)CN2CCC(c3cccc(F)c3)N2C1=O (centres unmarked) [Compound 30]
27,< 1 µM,"CC1(C)CN2CCC(c3cccc(F)c3)N2C1=O (single isomer, unassigned) [Compound 3]"
28,< 1 µM,"CC1(C(F)F)CN2CCC(c3cncc(F)c3)N2C1=O (single isomer, unassigned) [Compound 45]"
